Legend:
Rattus norvegicus [1] = assay: Percent reduction of blood pressure in spontaneously hypertensive rat after 10 min at intraperitoneal administration of 5 mg/kg; format: functional
[2] = target: Serotonin 2 (5-HT2) receptor (Rattus norvegicus, UniProt P30994+P08909+P14842); assay: Inhibition of [3H]spiperone binding to 5-hydroxytryptamine 2 receptor from rat cortical membranes; format: cell membranes, Membrane
Mus musculus = species: Mus musculus; assay: Inhibition of methyl phenidate induced stereotyped gnawing in mice; format: functional
Rattus norvegicus [3] = species: Rattus norvegicus; assay: Inhibition of L-5-HTP (L-5-hydroxytryptophan) induced head twitches in rat; format: functional
D(2) dopamine receptor = D(2) dopamine receptor (Rattus norvegicus, UniProt P61169); assay: Inhibition of [3H]spiperone binding to Dopamine receptor D2 from rat striatal membranes; format: cell membranes, Membrane
[4] = Rattus norvegicus, read-out: ED50

Sequence of D(2) dopamine receptor (P61169 whole entry): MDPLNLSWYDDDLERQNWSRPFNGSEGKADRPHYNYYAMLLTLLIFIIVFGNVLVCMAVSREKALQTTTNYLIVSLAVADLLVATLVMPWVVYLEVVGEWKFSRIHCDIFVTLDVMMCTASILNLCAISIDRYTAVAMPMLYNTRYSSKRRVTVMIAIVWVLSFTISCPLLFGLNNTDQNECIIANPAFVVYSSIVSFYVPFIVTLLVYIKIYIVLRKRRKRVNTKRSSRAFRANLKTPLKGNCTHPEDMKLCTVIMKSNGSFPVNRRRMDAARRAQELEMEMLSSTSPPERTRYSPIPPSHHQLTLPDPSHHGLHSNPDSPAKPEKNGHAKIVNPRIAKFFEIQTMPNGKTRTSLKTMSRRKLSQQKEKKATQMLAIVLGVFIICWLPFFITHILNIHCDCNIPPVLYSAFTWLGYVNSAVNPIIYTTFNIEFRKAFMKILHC

| Compound | Reduction (Rattus norvegicus [1]) [%] | IC50 [2] [nM] | ED50 (Mus musculus) [µmol/kg] | ED50 (Rattus norvegicus [3]; [4]) [µmol/kg] | IC50 (D(2) dopamine receptor) [nM] | ED50 (Rattus norvegicus [3]) [µmol/kg] |
| --- | --- | --- | --- | --- | --- | --- |
| CN1CCN(CCN2CCN(C3CC(c4ccc(F)cc4)c4ccccc43)CC2)C1=O.Cl.Cl.O (stereo not drawn) | -6 | 13 | > 80 |  |  |  |
| O=C(O)/C=C\C(=O)O.O=C(O)/C=C\C(=O)O.O=C1NCCCN1CCN1CCN(C2CC(c3ccc(F)cc3)c3ccc(F)cc32)CC1 (stereo not drawn) | 0 | 11 | > 59 |  |  |  |
| O=C1NCCN1CCN1CCN(C(=O)c2ccccc2)CC1 | 6 | 4800 | > 132 | > 8.2 | > 1000 |  |
| O=C1NCCN1CCN1CCN(C(=O)c2ccc(F)cc2)CC1 | 11 | 58000 | > 125 | 1.8 | > 1000 |  |
| Fc1ccc(C2CC(N3CCN(CCN4CCN=C4S)CC3)c3ccccc32)cc1.O=C(O)/C=C\C(=O)O.O=C(O)/C=C\C(=O)O (stereo not drawn) | -18 | 3.3 | > 61 | 0.43 |  |  |
| O=C(O)/C=C\C(=O)O.O=C(O)/C=C\C(=O)O.O=C1NCCN1CCN1CCN(C2CC(c3ccccc3)c3ccccc32)CC1 (stereo not drawn) |  | 12 | > 64 |  | 1900 | 26 |
| Fc1ccc(C2CC(N3CCN(CCN4CCCN=C4S)CC3)c3cc(F)ccc32)cc1.O=C(O)/C=C\C(=O)O.O=C(O)/C=C\C(=O)O (stereo not drawn) | -13 | 7.5 | 23 |  | 51 |  |
